From ChEMBL document CHEMBL3784934, “N-Alkylpyrido[1',2':1,5]pyrazolo-[4,3-d]pyrimidin-4-amines: A new series of negative allosteric modulators of mGlu1/5 with CNS exposure in rodents” (Bioorg Med Chem Lett, 2016)
Each block holds one compound with its values, some of them ahead of it. Calls of active or inactive are those of the source. The calls are words filed in the database; no cut-off is given here.

How the values were obtained:
[1] = target: Metabotropic glutamate receptor 1 (Rattus norvegicus, UniProt P23385); assay: Negative allosteric modulation of rat mGluR1 expressed in HEK293 cells assessed as inhibition of glutamate induced calcium mobilization by calcium mobilization assay; type: functional, cell-based
Sequence of Metabotropic glutamate receptor 1 (P23385 whole entry): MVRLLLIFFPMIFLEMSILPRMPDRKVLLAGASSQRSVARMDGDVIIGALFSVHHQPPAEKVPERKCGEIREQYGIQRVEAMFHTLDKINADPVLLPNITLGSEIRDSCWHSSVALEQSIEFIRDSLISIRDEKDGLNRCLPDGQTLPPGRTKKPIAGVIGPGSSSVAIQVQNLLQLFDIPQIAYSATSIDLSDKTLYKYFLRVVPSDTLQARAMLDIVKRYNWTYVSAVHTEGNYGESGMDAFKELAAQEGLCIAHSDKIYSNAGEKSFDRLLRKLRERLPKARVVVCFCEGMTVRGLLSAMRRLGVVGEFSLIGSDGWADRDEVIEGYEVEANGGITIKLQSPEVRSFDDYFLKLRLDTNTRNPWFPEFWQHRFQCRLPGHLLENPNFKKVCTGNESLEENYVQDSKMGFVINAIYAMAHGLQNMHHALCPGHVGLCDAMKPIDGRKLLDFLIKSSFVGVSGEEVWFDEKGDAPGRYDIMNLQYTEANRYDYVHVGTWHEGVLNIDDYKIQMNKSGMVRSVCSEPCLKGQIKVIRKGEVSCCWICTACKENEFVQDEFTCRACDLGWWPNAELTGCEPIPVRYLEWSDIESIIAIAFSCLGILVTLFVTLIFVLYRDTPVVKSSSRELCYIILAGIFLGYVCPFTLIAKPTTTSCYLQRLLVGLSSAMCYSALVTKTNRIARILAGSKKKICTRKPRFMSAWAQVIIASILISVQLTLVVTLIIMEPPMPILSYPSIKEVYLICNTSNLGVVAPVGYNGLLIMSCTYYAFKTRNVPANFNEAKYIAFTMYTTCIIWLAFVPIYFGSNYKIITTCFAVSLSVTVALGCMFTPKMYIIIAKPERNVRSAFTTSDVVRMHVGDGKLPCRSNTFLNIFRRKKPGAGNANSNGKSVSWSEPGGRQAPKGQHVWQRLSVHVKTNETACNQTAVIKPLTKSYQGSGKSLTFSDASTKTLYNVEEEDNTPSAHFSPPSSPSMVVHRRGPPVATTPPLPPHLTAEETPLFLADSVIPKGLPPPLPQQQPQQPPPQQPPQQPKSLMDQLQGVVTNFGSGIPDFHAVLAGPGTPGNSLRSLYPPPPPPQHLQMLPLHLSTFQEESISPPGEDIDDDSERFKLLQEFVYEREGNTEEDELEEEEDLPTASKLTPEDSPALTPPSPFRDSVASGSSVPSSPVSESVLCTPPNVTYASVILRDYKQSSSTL

[2] = target: Metabotropic glutamate receptor 1 (Rattus norvegicus) (UniProt P23385); assay: Negative allosteric modulation of rat mGluR1 expressed in HEK293 cells assessed as calcium mobilization at 30 uM by calcium mobilization assay relative to 100 uM glutamate; type: functional, cell-based
Sequence of Metabotropic glutamate receptor 1 (Rattus norvegicus) (P23385 19-1199 limits assumed): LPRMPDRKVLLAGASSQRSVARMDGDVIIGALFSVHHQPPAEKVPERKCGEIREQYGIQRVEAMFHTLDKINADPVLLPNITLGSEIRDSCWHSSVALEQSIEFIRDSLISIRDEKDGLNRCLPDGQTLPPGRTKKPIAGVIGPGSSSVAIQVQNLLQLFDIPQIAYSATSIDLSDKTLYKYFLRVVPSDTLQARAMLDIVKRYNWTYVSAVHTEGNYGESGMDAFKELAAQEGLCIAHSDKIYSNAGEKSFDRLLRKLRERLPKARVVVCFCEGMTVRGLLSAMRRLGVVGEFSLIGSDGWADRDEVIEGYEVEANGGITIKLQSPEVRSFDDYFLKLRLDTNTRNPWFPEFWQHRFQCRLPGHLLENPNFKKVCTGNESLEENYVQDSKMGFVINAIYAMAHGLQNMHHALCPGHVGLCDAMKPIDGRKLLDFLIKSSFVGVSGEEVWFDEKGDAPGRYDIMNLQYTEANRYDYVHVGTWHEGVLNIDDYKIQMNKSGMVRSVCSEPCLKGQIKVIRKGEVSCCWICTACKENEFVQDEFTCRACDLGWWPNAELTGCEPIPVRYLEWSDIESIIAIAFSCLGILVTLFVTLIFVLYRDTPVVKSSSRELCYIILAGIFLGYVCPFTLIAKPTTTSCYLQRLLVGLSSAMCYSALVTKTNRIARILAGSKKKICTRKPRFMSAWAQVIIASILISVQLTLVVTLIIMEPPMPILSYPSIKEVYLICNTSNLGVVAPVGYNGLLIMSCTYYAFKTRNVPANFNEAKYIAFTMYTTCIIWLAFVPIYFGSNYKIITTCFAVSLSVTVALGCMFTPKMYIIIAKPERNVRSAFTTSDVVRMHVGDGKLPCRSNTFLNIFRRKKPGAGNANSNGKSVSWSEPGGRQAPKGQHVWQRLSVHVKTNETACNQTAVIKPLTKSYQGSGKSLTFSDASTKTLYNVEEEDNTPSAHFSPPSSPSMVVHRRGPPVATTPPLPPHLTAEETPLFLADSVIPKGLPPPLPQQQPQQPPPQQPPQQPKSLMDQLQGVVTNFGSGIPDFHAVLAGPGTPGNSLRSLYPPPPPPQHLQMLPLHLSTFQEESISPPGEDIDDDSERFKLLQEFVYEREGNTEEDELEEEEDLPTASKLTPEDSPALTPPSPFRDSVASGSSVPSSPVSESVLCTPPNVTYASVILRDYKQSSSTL

[3] = target: Metabotropic glutamate receptor 5 (Rattus norvegicus, UniProt P31424); assay: Negative allosteric modulation of rat mGluR5 expressed in HEK293 cells assessed as inhibition of glutamate induced calcium mobilization by calcium mobilization assay; type: functional, cell-based
Sequence of Metabotropic glutamate receptor 5 (P31424 whole entry): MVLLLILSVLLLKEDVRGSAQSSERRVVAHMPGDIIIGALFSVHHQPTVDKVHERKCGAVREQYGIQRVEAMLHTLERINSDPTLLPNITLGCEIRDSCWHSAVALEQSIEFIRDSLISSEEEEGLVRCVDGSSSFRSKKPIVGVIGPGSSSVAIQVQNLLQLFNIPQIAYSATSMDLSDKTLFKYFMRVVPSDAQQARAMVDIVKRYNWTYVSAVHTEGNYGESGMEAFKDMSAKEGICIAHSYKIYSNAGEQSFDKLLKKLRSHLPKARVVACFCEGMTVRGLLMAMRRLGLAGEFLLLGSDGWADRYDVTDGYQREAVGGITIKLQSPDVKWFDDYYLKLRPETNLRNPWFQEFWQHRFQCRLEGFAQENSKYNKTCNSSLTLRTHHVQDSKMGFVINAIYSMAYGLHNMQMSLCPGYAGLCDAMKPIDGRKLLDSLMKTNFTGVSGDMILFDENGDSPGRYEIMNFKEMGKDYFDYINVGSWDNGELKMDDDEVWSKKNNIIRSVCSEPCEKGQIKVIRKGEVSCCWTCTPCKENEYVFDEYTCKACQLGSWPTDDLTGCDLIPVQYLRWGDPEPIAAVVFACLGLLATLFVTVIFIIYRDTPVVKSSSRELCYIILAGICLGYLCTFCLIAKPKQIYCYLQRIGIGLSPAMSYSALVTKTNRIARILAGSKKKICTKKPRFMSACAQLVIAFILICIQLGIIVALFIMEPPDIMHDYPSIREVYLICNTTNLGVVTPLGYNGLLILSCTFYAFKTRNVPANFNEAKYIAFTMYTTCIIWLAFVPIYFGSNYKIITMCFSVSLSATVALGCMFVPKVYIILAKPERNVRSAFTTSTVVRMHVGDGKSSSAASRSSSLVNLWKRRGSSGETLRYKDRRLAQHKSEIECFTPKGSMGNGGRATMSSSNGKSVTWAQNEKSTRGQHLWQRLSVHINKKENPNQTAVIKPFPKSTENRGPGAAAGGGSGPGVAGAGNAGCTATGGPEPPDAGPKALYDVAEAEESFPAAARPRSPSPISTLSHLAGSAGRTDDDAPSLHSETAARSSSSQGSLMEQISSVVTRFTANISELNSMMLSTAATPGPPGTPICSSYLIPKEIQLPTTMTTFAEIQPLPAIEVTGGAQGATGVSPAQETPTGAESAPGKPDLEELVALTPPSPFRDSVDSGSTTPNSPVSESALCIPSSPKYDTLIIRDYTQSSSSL

[4] = target: Metabotropic glutamate receptor 5 (Rattus norvegicus) (UniProt P31424); assay: Negative allosteric modulation of rat mGluR5 expressed in HEK293 cells assessed as calcium mobilization at 30 uM by calcium mobilization assay relative to 100 uM glutamate; type: functional, cell-based
Sequence of Metabotropic glutamate receptor 5 (Rattus norvegicus) (P31424 21-1203 limits assumed): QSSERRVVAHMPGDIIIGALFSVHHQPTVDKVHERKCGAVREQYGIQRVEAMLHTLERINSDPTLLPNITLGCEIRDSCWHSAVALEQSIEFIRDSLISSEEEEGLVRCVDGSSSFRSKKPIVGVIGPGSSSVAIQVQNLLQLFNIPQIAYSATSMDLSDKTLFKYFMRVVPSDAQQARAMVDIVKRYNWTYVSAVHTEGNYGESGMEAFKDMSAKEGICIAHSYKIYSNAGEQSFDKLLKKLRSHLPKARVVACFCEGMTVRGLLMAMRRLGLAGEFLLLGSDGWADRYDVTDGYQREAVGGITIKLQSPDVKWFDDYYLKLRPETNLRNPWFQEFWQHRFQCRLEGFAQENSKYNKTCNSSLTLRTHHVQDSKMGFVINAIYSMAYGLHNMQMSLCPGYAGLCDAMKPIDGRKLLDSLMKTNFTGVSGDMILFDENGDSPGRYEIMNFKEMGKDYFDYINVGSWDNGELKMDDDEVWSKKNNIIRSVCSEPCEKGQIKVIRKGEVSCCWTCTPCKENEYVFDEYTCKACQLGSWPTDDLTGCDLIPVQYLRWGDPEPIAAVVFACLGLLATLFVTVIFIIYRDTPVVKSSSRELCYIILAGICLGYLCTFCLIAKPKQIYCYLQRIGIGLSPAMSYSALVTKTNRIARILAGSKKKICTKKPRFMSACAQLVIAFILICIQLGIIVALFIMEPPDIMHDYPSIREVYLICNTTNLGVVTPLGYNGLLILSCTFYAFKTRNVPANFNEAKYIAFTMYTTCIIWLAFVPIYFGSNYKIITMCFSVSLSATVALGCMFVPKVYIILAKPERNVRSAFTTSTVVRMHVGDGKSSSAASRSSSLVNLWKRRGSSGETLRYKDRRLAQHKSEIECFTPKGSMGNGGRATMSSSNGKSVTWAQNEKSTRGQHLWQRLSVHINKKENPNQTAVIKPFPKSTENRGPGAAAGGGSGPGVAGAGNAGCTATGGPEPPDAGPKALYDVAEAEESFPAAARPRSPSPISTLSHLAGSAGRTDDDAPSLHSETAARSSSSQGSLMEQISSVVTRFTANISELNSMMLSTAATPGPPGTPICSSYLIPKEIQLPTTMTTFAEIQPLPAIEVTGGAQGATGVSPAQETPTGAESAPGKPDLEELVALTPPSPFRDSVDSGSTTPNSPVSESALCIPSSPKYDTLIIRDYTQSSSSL

[5] = target: Adenosine receptor A1 (Homo sapiens) (UniProt P30542); assay: Inhibition of recombinant human Adenosine A1 receptor expressed in CHO cells at 10 uM by radioligand binding assay; type: cell-based
Sequence of Adenosine receptor A1 (Homo sapiens) (P30542 whole entry): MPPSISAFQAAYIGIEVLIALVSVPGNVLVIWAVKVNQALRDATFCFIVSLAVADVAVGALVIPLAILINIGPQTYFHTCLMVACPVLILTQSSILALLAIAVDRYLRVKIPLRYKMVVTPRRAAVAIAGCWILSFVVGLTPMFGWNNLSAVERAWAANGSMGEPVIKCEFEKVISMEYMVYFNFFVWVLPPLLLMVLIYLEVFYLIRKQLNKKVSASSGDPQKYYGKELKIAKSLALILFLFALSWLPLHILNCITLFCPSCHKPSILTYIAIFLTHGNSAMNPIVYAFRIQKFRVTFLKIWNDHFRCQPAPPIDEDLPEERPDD

[6] = target: Adenosine receptor A2a (Homo sapiens) (UniProt P29274); assay: Inhibition of recombinant human Adenosine A2A receptor expressed in HEK293 cells at 10 uM by radioligand binding assay; type: cell-based
[7] = target: 5-hydroxytryptamine receptor 2B (Homo sapiens) (UniProt P41595); assay: Inhibition of recombinant human 5-HT2B receptor expressed in CHOK1 cells at 10 uM by radioligand binding assay; type: cell-based; settings: CHO-K1
[8] = target: Sodium-dependent noradrenaline transporter (Homo sapiens) (UniProt P23975); assay: Inhibition of recombinant human norepinephrine transporter expressed in MDCK cells at 10 uM by radioligand binding assay; type: cell-based
Rattus norvegicus = species on record: Rattus norvegicus; assay: Inhibition of rat brain sodium channel, site 2 at 10 uM by radioligand binding assay
[9] = target: Casein kinase I isoform alpha (Homo sapiens) (UniProt P48729); assay: Inhibition of human CK1alpha1 at 10 uM
[10] = target: Casein kinase I isoform delta (Homo sapiens) (UniProt P48730); assay: Inhibition of human CK1delta at 10 uM
[11] = target: Casein kinase I isoform epsilon (Homo sapiens) (UniProt P49674); assay: Inhibition of human CK1epsilon at 10 uM
[12] = target: Casein kinase I isoform gamma-2 (Homo sapiens) (UniProt P78368); assay: Inhibition of human CK1gamma2 at 10 uM
[13] = target: Serine/threonine-protein kinase 17A (Homo sapiens) (UniProt Q9UEE5); assay: Inhibition of human DRAK1 at 10 uM
[14] = target: SRSF protein kinase 1 (Homo sapiens) (UniProt Q96SB4); assay: Inhibition of human SRPK1 at 10 uM
[15] = target: SRSF protein kinase 2 (Homo sapiens) (UniProt P78362); assay: Inhibition of human SRPK2 at 10 uM
[16] = target: TRAF2 and NCK-interacting protein kinase (Homo sapiens) (UniProt Q9UKE5); assay: Inhibition of human TNIK at 10 uM
[17] = Fraction unbound in mouse plasma by equilibrium dialysis assay; type: ADME, cell-free
Plasma = assay: Fraction unbound in rat plasma by equilibrium dialysis assay; type: ADME, cell-free
[18] = Fraction unbound in rat brain by equilibrium dialysis assay; type: ADME, tissue-based
[19] = Fraction unbound in mouse brain by equilibrium dialysis assay; type: ADME, tissue-based
Cytochrome P450 3A4 = Cytochrome P450 3A4 (Homo sapiens, UniProt P08684); assay: Inhibition of CYP3A4 in human liver microsomes in presence of NADPH; type: ADME
Cytochrome P450 2D6 = Cytochrome P450 2D6 (Homo sapiens, UniProt P10635); assay: Inhibition of CYP2D6 in human liver microsomes in presence of NADPH; type: ADME
Cytochrome P450 2C9 = Cytochrome P450 2C9 (Homo sapiens, UniProt P11712); assay: Inhibition of CYP2C9 in human liver microsomes in presence of NADPH; type: ADME
Cytochrome P450 1A2 = Cytochrome P450 1A2 (Homo sapiens, UniProt P05177); assay: Inhibition of CYP1A2 in human liver microsomes in presence of NADPH; type: ADME
[20] = Half life in Sprague-Dawley rat at 0.2 mg/kg, iv; type: ADME, organism-based; settings: in vivo
[21] = Plasma clearance in Sprague-Dawley rat at 0.2 mg/kg, iv; type: ADME, organism-based
[22] = Ratio of drug level in brain to plasma of rat at 0.2 mg/kg measured at 15 mins post dose; type: ADME, organism-based; settings: 0.25 h
[23] = Ratio of drug level in brain to plasma of CD-1 mouse at 30 mg/kg measured at 30 mins post dose; type: ADME, organism-based; settings: 0.5 h
[24] = Unbound brain to plasma ratio in rat at 0.2 mg/kg measured at 15 mins post dose; type: ADME, organism-based; settings: 0.25 h
[25] = Unbound brain to plasma ratio in CD-1 mouse at 30 mg/kg, ip measured at 30 mins post dose; type: ADME, organism-based; settings: 0.5 h
[26] = Tmax in Sprague-Dawley rat at 10 mg/kg, ip; type: ADME, organism-based; settings: in vivo
[27] = Cmax in Sprague-Dawley rat at 10 mg/kg, ip; type: ADME, organism-based; parameters: dose 10 mg/kg, route intraperitoneal; settings: in vivo
[28] = AUC in Sprague-Dawley rat at 10 mg/kg, ip; type: ADME, organism-based; settings: in vivo
[29] = Tmax in CD-1 mouse at 30 mg/kg, ip; type: ADME, organism-based; settings: in vivo
[30] = Cmax in CD-1 mouse at 30 mg/kg, ip; type: ADME, organism-based; parameters: dose 30 mg/kg, route intraperitoneal; settings: in vivo
[31] = AUC in CD-1 mouse at 30 mg/kg, ip; type: ADME, organism-based; settings: in vivo
[32] = target: Metabotropic glutamate receptor 2 (Rattus norvegicus) (UniProt P31421); assay: Activity at rat mGluR2 expressed in HEK293-GIRK cells assessed as effect on glutamate-induced response by thallium flux assay; type: cell-based
[33] = target: Metabotropic glutamate receptor 3 (Rattus norvegicus) (UniProt P31422); assay: Activity at rat mGluR3 expressed in HEK293-GIRK cells assessed as effect on glutamate-induced response by thallium flux assay; type: cell-based
[34] = target: Metabotropic glutamate receptor 4 (Rattus norvegicus) (UniProt P31423); assay: Activity at rat mGluR4 expressed in HEK293-GIRK cells assessed as effect on glutamate-induced response by thallium flux assay; type: cell-based
[35] = target: Metabotropic glutamate receptor 6 (Rattus norvegicus) (UniProt P35349); assay: Activity at rat mGluR6 expressed in HEK293-GIRK cells assessed as effect on glutamate-induced response by thallium flux assay; type: cell-based
[36] = target: Metabotropic glutamate receptor 7 (Rattus norvegicus) (UniProt P35400); assay: Activity at rat mGluR7 expressed in HEK293-GIRK cells assessed as effect on glutamate-induced response by thallium flux assay; type: cell-based
[37] = target: Metabotropic glutamate receptor 8 (Rattus norvegicus) (UniProt P70579); assay: Activity at rat mGluR8 expressed in HEK293-GIRK cells assessed as effect on glutamate-induced response by thallium flux assay; type: cell-based
[38] = target: Adenosine receptor A3 (Homo sapiens) (UniProt P0DMS8); assay: Inhibition of recombinant human Adenosine A3 receptor expressed in CHOK1 cells at 10 uM by radioligand binding assay; settings: CHO-K1

IC50 [1]: 0.094 µM
%max [2]: 1.9%
IC50 ([3]; read-out: IC50): 3.29 µM
%max [4]: 1.3%
SMILES: c1ccn2nc3c(NC4CCCCCCC4)ncnc3c2c1

%max [2]: 2.2%
IC50 ([3]; read-out: IC50): > 30 µM
IC50 ([3]; read-out: pIC50 (converted)): > 31.6 µM
SMILES: C[C@@H](Nc1ncnc2c1nn1ccccc21)C(C)(C)C

IC50 [1]: 0.084 µM
%max [2]: 2.9%
IC50 ([3]; read-out: IC50): 1.75 µM
%max [4]: 3.4%
SMILES: c1ccn2nc3c(NC4C5CC6CC(C5)CC4C6)ncnc3c2c1 (configuration not stated)

IC50 [1]: > 30 µM
IC50 ([3]; read-out: IC50): > 30 µM
IC50 ([3]; read-out: pIC50 (converted)): > 31.6 µM
SMILES: CC(C)Nc1nc(N[C@H]2CC[C@H](C)CC2)c2nn3ccccc3c2n1

IC50 [1]: > 30 µM
IC50 ([3]; read-out: IC50): > 30 µM
IC50 ([3]; read-out: pIC50 (converted)): > 31.6 µM
SMILES: CNc1nc(N[C@H]2CC[C@H](C)CC2)c2nn3ccccc3c2n1

%max [2]: 7.1%
IC50 ([3]; read-out: IC50): > 30 µM
IC50 ([3]; read-out: pIC50 (converted)): > 31.6 µM
SMILES: CC1(C)[C@@H]2CC[C@]1(C)[C@@H](Nc1ncnc3c1nn1ccccc31)C2

IC50 [1]: 0.233 µM
%max [2]: 3.1%
IC50 ([3]; read-out: IC50): 2.09 µM
%max [4]: 2.3%
SMILES: C[C@@H]1[C@@H](Nc2ncnc3c2nn2ccccc32)C[C@H]2C[C@@H]1C2(C)C

IC50 [1]: > 30 µM
IC50 ([3]; read-out: IC50): > 30 µM
IC50 ([3]; read-out: pIC50 (converted)): > 31.6 µM
SMILES: C[C@H](Nc1ncnc2c1nn1ccccc21)C1CC1

IC50 [1]: 0.247 µM
%max [2]: 2.1%
%max [4]: 17.2%
SMILES: c1ccc2c(c1)CC(Nc1ncnc3c1nn1ccccc31)C2

%max [2]: -0.2%
IC50 ([3]; read-out: IC50): > 30 µM
IC50 ([3]; read-out: pIC50 (converted)): > 31.6 µM
SMILES: C[C@H](Nc1ncnc2c1nn1ccccc21)C(C)(C)C

IC50 [1]: > 10 µM
%max [2]: 12.6%
IC50 ([3]; read-out: IC50): > 30 µM
IC50 ([3]; read-out: pIC50 (converted)): > 31.6 µM
SMILES: CCC(C)(C)Nc1ncnc2c1nn1ccccc21

SMILES: CC1(C)CCC(Nc2ncnc3c2nn2ccccc32)CC1
IC50 [1]: 0.069 µM
%max [2]: 2.9%
IC50 ([3]; read-out: IC50): 0.129 µM
%max [4]: 1.6%
inhibition [5]: 92%
inhibition [6]: 94%
inhibition [7]: 65%
inhibition [8]: 65%
inhibition (Rattus norvegicus): 55%
inhibition [9]: 65.3%
inhibition [10]: 85.1%
inhibition [11]: 75.9%
inhibition [12]: 50.4%
inhibition [13]: 52.9%
inhibition [14]: 79.4%
inhibition [15]: 75.2%
inhibition [16]: 58.8%
Fu [17]: 0.025
Fu (Plasma): 0.037
fraction unbound [18]: 0.008
fraction unbound [19]: 0.01
IC50 (Cytochrome P450 3A4): > 30 µM
IC50 (Cytochrome P450 2D6): > 30 µM
IC50 (Cytochrome P450 2C9): > 30 µM
IC50 (Cytochrome P450 1A2): 9.6 µM
half-life [20]: 34 min
clearance [21]: 98 mL/min/kg
Kp [22]: 5.3
Kp [23]: 3.3
K(p,uu,brain) [24]: 1.1
K(p,uu,brain) [25]: 1.3
Tmax [26]: 15 min
Cmax [27]: 2300 nM
AUC [28]: 3.23 µM·h
Tmax [29]: 20 min
Cmax [30]: 3000 nM
AUC [31]: 2.86 µM·h
Activity [32]: inactive
Activity [33]: inactive
Activity [34]: inactive
Activity [35]: inactive
Activity [36]: inactive
Activity [37]: inactive
inhibition [38]: 63%

%max [2]: 7.1%
IC50 ([3]; read-out: IC50): > 30 µM
IC50 ([3]; read-out: pIC50 (converted)): > 31.6 µM
SMILES: Cc1nc(N[C@H]2C[C@H]3CC[C@@]2(C)C3(C)C)c2nn3ccccc3c2n1

IC50 [1]: 0.484 µM
%max [2]: 2.4%
IC50 ([3]; read-out: IC50): > 30 µM
IC50 ([3]; read-out: pIC50 (converted)): > 31.6 µM
SMILES: OC12CC3CC(C1)CC(Nc1ncnc4c1nn1ccccc41)(C3)C2

%max [2]: 0.9%
pIC50 ([3]; hek293): < 5
IC50 ([3]; read-out: IC50): > 10 µM
%max [4]: 61.8%
SMILES: C[C@H](Nc1ncnc2c1nn1ccccc21)C1CCCCC1
